Assay results: US20210244735A1, “COMPOSITIONS AND METHODS FOR TREATING MYELOFIBROSIS” (Impact Biomedicines, Inc., priority 2010, published 2021)
“Also recorded” adds a separate entry of the source. Where a name gives a salt, the structure may show the parent alone.

How the values were obtained:
[1] = test system: IL-6, IL-8, IL-2 and TNF-α; assay: Phase 1 study: cytokine assessment by multiplexed sandwich ELISAs; type: in vivo, human; conditions: relative to baseline during treatment; dihydrochloride monohydrate
Protocol: Cytokine Assessment: Samples for cytokine measurement were collected at baseline and every 4 weeks thereafter. Cytokine levels were measured using multiplexed sandwich ELISAs (Millipore, St. Charles, Mo.).

[2] = Drug substance blend compatibility with fillers and lubricants; type: physicochemical; conditions: blends with lactose, mannitol, MCC Avicel PH102, MCC ProSolv 90 HD; magnesium stearate, Pruv; 60° C./ambient humidity
Protocol: A matrix of formulation blends was designed to study the compatibility of TG101348 di-HCl monohydrate with four fillers and two lubricants (Table 17). Blends were prepared at a scale of 2.5 g each by prescreening all components through a 500 μm sieve, blending all components except the lubricant using aTurbula T2B blender for 10 min at 22 rpm, screening the blend through a 500 μm sieve, blending for 10 min, adding lubricant (weight adjusted) and blending for 5 min The blends were manufactured and stored in 30 mL amber HDPE bottles under primary (60° C./ambient humidity) and backup conditions (40° C./75% RH, 25° C./60% RH, and 5° C.).

subjects with MF = assay: Phase 1 dose-escalation study MF-TG101348-001 (and extension MF-TG101348-002): clinical response (spleen, leukocytosis, thrombocytosis, constitutional symptoms, bone marrow); type: in vivo, human; conditions: for subjects achieving a normal WBC count: following 6 cycles; for subjects achieving a normal platelet count: after 6 cycles; for subjects with minimum 25% decrease in palpable spleen size: intent-to-treat
Protocol: The key eligibility criteria for subjects included: Myelofibrosis (PMF or post-PV/ET MF); High-risk or intermediate-risk with symptomatic splenomegaly/unresponsive to available therapy; ECOG performance status ≤2; ANC≥1×10^9/L; Platelet count≥50×10^9/L; Serum creatinine ≤2 mg/dL; Total bilirubin ≤2 mg/dL; AST/ALT≤3X upper limit of normal.
All patients provided written informed consent.
Responses were measured every 4 weeks per International Working Group for MPN Research and Treatment (IWG-MRT) criteria (Tefferi A et al., Blood 108:1497-1503, 2006). Assessment of bone marrow histology was performed at baseline and every 24 weeks of therapy. Changes in JAK2V 617F allele burden in the granulocyte fraction of peripheral blood were measured as previously described (Kittur J et al., Cancer 109:2279-2284, 2007); the assessments were at baseline and every 4 weeks during the first 6 cycles, and every 6th cycle of therapy in the extension study.

serum EPO and TPO = assay: Phase 1 study: serum EPO and TPO levels; type: in vivo, human; conditions: after treatment initiation (data not shown)
[3] = MTD cohort, after 1 cycle (n=12)
[4] = MTD cohort, after 1 cycle, 8 subjects at baseline
[5] = MTD cohort, after 6 cycles (n=16)
[6] = at 3 months, 33 patients who started at >680 mg and completed at least 3 cycles

Structure (SMILES): Cc1cnc(Nc2ccc(OCCN3CCCC3)cc2)nc1Nc1cccc(S(=O)(=O)NC(C)(C)C)c1 [TG101348, N-tert-butyl-3-[(5-methyl-2-{[4-(2-pyrrolidin-1-ylethoxy)phenyl]amino}pyrimidin-4-yl)amino]benzenesulfonamide dihydrochloride monohydrate]
- effect on cytokine levels (IL-6, IL-8, IL-2, TNF-α) [1]: no significant changes; also recorded: minimal effect; also recorded: no consistent changes
- compatibility with fillers and lubricants: changes in attributes (appearance, assay, impurities) [2]: no incompatibilities
- normal WBC count at last follow-up visit (subjects with MF; 21 patients with leukocytosis at baseline who started at ≥680 mg): 70%
- complete response in splenomegaly (subjects with MF; Example 2 conclusions): ~30%
- proportion achieving ≥50% reduction in palpable splenomegaly (subjects with MF; Example 2 conclusions): two-thirds
- subjects achieving CI (subjects with MF; JAK2V617F-negative MF, 4 subjects who completed 6 cycles): 75%
- night sweats: complete resolution (subjects with MF; MTD cohort, after 1 cycle): 64 % of subjects
- cough: complete resolution (subjects with MF; [3]): 67%
- cough: improvement (subjects with MF; [3]): 75%
- pruritus: complete resolution (subjects with MF; [4]): 50%
- pruritus: improvement (subjects with MF; [4]): 75%
- early satiety: complete resolution (subjects with MF; MTD cohort, after 2 cycles (n=27)): 56%
- night sweats: complete resolution (subjects with MF; MTD cohort, after 6 cycles (n=9)): 89%
- fatigue: complete resolution (subjects with MF; [5]): 25%
- fatigue: improvement (subjects with MF; [5]): 63%
- subjects with disease progression (subjects with MF; all subjects): Three
- reduction in palpable spleen size at least 50% (subjects with MF; [6]): 22 (67%) patients (%)
- spleen became non-palpable (subjects with MF; [6]): 9 (27%) patients (%)
- normal WBC counts at follow-up visit (subjects with MF; baseline WBC count >11×10^9/L, follow-up doses 360 to 680 mg/day): 73 % of subjects
- subjects achieving a normal WBC count (subjects with MF; baseline leukocytosis (WBC >11×10^9/L), across doses (16 of 28)): 57%
- subjects achieving a normal WBC count (subjects with MF; baseline leukocytosis, MTD cohort (13 of 18)): 72%
- effect on thrombocytosis (subjects with MF; baseline platelet count >450×10^9/L): able to reduce platelet counts
- subjects achieving a normal platelet count (subjects with MF; baseline thrombocytosis (platelet count >450×10^9/L), across doses (10 subjects)): 90%
- subjects achieving a normal platelet count (subjects with MF; baseline thrombocytosis, MTD cohort (7 subjects)): 100%
- ≥50% decrease in palpable spleen size persistent for at least 8 weeks (Clinical Improvement per IWG-MRT) (subjects with MF; by cycle 6, MTD cohort): 45 % of subjects
- subjects with minimum 25% decrease in palpable spleen size (subjects with MF; by cycle 6, MTD cohort): 65%
- ≥50% decrease in palpable spleen size persistent for at least 8 weeks (Clinical Improvement per IWG-MRT) (subjects with MF; by cycle 6, overall): 39 % of subjects
- subjects with minimum 25% decrease in palpable spleen size (subjects with MF; by cycle 6, overall): 61%
- spleen responses (CI) (subjects with MF; by cycle 12, MTD cohort): 50 % of subjects
- spleen responses (CI) (subjects with MF; by cycle 12, overall): 48 % of subjects
- effect on constitutional symptoms (early satiety, fatigue, cough, pruritus, night sweats) (subjects with MF; evaluable subjects, baseline versus last visit, dihydrochloride monohydrate): clinically significant benefit or resolution; also recorded: able to improve; also recorded: remarkable activity
- pruritus (subjects with MF; one subject with JAK2V617F-positive PMF, started at 680 mg/day): complete resolution
- bone marrow fibrosis after 18 cycles (subjects with MF; person, V617F negative PMF, baseline 3+, starting dose 240 mg/day, follow-up 440 mg/day): 0
- bone marrow cellularity after 18 cycles (subjects with MF; person, V617F negative PMF, baseline 60%, starting dose 30 mg/day, follow-up 520 mg/day): 5-10%
- serum EPO and to a lesser extent TPO levels relative to baseline (serum EPO and TPO): increases
